Publication PMC4560162, “Discovery of small molecule inhibitors of xyloglucan endotransglucosylase (XET) activity by high-throughput screening” (Phytochemistry, 2015)
Values joined by “and” are separate entries in the source; they are usually repeats but may differ in a detail not shown here. Identical values can stand only once. Like-named read-outs stand apart in the source and are kept apart here.

Legend:
parsley XET activity = experiment: Radiochemical XET assay (soluble xyloglucan + [3H]XXXGol); format: biochemical; settings: for effect on XET activity in radiochemical assays (as summarised in the discussion) / IC50: soluble xyloglucan, laboratory light; for effect on XET activity in radiochemical assays (as summarised in the discussion): free solution; for effect on XET activity, first radiochemical re-screen of EDI hits: most xenobiotics at 200 μg/ml (≈200–800 μM); for effect on XET activity, radiochemical re-screen of 206 compounds (mostly LATCA): LATCA approx. 25 μM, EDI approx. 200 μg/ml, listed in order of decreasing effectiveness; for IC50: read-out: IC50 (concentration required for 50% inhibition of XET activity), radiochemical assay, 20 °C
Procedure: The parsley enzyme concentration was held constant, and the xenobiotics were tested at 200, 160, 120, 80, 40, 20, 10 and 0 μg/ml (concentrations in the final reaction mixture). Other details were as above.
The riboflavin-free controls received the same DMSO concentration.

[1] = tested on: Petroselinum xyloglucan endotransglucosylase (XET) activity; experiment: Fluorescent dot-blot XET screen (cellulose-bound xyloglucan + XGO–SR on paper, in the dark); format: biochemical, parsley; settings: for effect on XET activity in dot-blot (inhibition / promotion): EDI 0.4 mg/ml, LATCA 50 μM, 2 h, dark, cellulose-bound xyloglucan; for coagulation ('type c' effect) in dot-blot: EDI collection, 0.4 mg/ml in enzyme mixture
Procedure: For inhibitor screening, 53 new 96-well plates were set up with 50 μl of parsley enzyme extract per well, and 1 μl of DMSO-solubilised xenobiotic was added to each well, giving concentrations of 0.4 mg/ml (EDI collection, with exceptions noted in Table S2) or 50 μM (LATCA collection) and 2% v/v DMSO.
XET test-paper was prepared as before ([Fry, 1997]) and 112 × 75-mm sheets were attached to cellulose acetate overhead-projector sheets with ‘Spraymount’ adhesive. Each sheet was placed on a pre-cooled glass plate in a cold room at 4 °C.
For inhibitor screening (Fig. 2), 4 μl of a parsley enzyme/xenobiotic mixture was applied to each position on a sheet. Incubation at 20 °C for 2 h, washing, drying and photography were conducted essentially as above.

[2] = tested on: Zea cell-suspension cultures; experiment: Membrane function ([14C]proline uptake) in Zea culture; format: cell-based, Zea mays; settings: 4 d after xenobiotic
[3] = tested on: Zea cell-suspension cultures; experiment: Cell expansion (SCV, PCV) in Zea cell-suspension culture; format: cell-based, Zea mays
Procedure: (§1) Cell-suspension cultures of “Paul’s Scarlet” rose [a complex hybrid; genus Rosa; isolated in October 1957 from sections of young stem material; [Nickell and Tulecke, 1959]) and maize (Zea mays L., Black Mexican Sweetcorn, donated by Dr. I. Moore, Department of Botany, University of Edinburgh) were grown under constant dim illumination (10 μmol m^−2 s^−1) on an orbital shaker at 25 °C. Rose cells were maintained as described by [Chormova et al. (2014)] and maize cells as described by [Kerr and Fry (2003)].
(§2) Eight xenobiotics that inhibited XET activity were selected for biological testing. Mini-cultures [2 ml, 5% (v/v) SCV; transferred from a standard culture 7 d after sub-culturing] were incubated in 12-well tissue culture microplates with the lids closed loosely. Xenobiotics were added as concentrated stocks in DMSO (final DMSO concentration 2%), and incubation was continued aseptically under standard conditions of temperature, lighting and shaking. After 4 d, 1 kBq of [^14C]proline was added per mini-culture. A small volume of medium (50 μl) was sampled 2 and 4 h after [^14C]proline addition and assayed for remaining extracellular ^14C. The culture was brought up to 10 ml with water and the settled and packed cell volumes (SCV, PCV) were then measured ([Fry and Street, 1980]). Most of the culture medium was then removed and the cells were finally killed by addition of 0.5 ml of 6% SDS. After 0.5 h at 100 °C, a 100-μl aliquot of the centrifuged SDS-extract was dried onto Whatman No. 3 paper, which was then washed in 75% ethanol supplemented with 0.5% acetic acid, thus removing free [^14C]proline and its low-Mr metabolites if any; radioactivity remaining on the paper ([^14C]protein) was then assayed.

[4] = tested on: nine other cell-wall enzyme activities; experiment: Dot-blot assays for nine additional wall enzyme activities; format: biochemical, parsley and lucerne (alfalfa); settings: xenobiotic 200 mg/l
Procedure: Radiolabelled oligosaccharide ([1-^3H]Gal12-ol or [1-^3H]Xyl6-ol; 1 kBq; containing a trace of Orange G) was dried into each well of a 96-well plate. […] The mixture was incubated for 24 h (for Gal12-ol) or 48 h (for Xyl6-ol), then the 5-μl reaction mixture was dried onto each position on a piece of plain Whatman No. 1 paper in 96-well format. Visual inspection of the Orange G verified that the samples had been correctly applied to the paper. […] Thus, in this assay, radioactive spots reveal inhibition of the enzyme.

[5] = tested on: Rosa cell-suspension cultures; experiment: Membrane function ([14C]proline uptake) in Rosa culture; format: cell-based, Rosa ("Paul's Scarlet" rose); settings: 4 d after xenobiotic, at the concentrations tested
Procedure: Before testing the effects of XET-inhibitors on cell expansion, we defined their non-toxic concentrations. The eight XET-inhibiting xenobiotics mentioned in §2.7 were tested for cytotoxicity in cultured Rosa and Zea cells, by simple tests of the compounds’ ability to inhibit membrane and ribosome function based on [^14C]proline uptake and incorporation. In xenobiotic-free control 4-d-old Rosa cultures, 93.3% and 94.3% of the supplied [^14C]proline was absorbed from the medium within 2 and 4 h respectively, indicating healthy membrane function. In xenobiotic-free 4-d-old Zea cultures, the corresponding figures were 93.9% and 92.5%. By 4 h, 5.5% of the total [^14C]proline supplied had been incorporated into protein by Rosa and 9.3% by Zea cells, indicating healthy ribosome function. Against these control rates, we recorded any inhibition of membrane and ribosome function by the xenobiotics (Fig. 8). Each xenobiotic was tested at two concentrations (¼ and ^1/20 of the lowest non-tolerated concentration), which had been selected on the basis of preliminary experiments with a dilution series of the xenobiotic.
as §2, with “A small volume of medium (50 μl) was sampled 2 and 4 h after [^14C]proline addition and assayed for remaining extracellular ^14C.” left out, “Most of the culture medium was then removed and the cells were finally killed by addition of 0.5 ml of 6% SDS.” left out

[6] = tested on: Rosa cell-suspension cultures; experiment: Cell expansion (SCV, PCV) in Rosa cell-suspension culture; format: cell-based, Rosa ("Paul's Scarlet" rose)
Procedure: as §1, §2

effect on XET activity in dot-blot (inhibition / promotion) [1] | coagulation ('type c' effect) in dot-blot [1] | Molecule | effect on XET activity in radiochemical assays (as summarised in the discussion) (parsley XET activity) | effect on XET activity, first radiochemical re-screen of EDI hits (parsley XET activity) | effect on XET activity, radiochemical re-screen of 206 compounds (mostly LATCA) (parsley XET activity) | other results
promoted |  | O=C(O)[C@]1(O)C[C@@H](O)[C@@H](O)[C@H](O)C1 [quinic acid] | little effect |  |  | 
did not show inhibitory effects |  | COC(=O)/C(=C1/OC(=O)C(c2ccccc2)=C1O)c1ccccc1 [vulpinic acid] | inhibitor |  |  | number of the nine other wall enzyme activities inhibited [4]: two; membrane function [5]: impaired

The remaining lines, values behind:

Molecule | effect on XET activity in dot-blot (inhibition / promotion) [1] | coagulation ('type c' effect) in dot-blot [1] | effect on XET activity in radiochemical assays (as summarised in the discussion) (parsley XET activity) | effect on XET activity, first radiochemical re-screen of EDI hits (parsley XET activity) | effect on XET activity, radiochemical re-screen of 206 compounds (mostly LATCA) (parsley XET activity) | other results
O=c1cc(-c2ccc(O)c(O)c2)oc2cc(O)cc(O)c12 [luteolin] | promoted | coagulation | inhibited |  |  | 
COc1c(C)c2c(c(O)c1C/C=C(\C)CCC(=O)O)C(=O)OC2 [mycophenolic acid] |  |  |  |  |  | membrane function ([2]; higher tested concentration): impaired; concentration inhibiting growth (PCV) without membrane impairment ([3]; Zea, 4 d incubation): 60 µM
O=C1OC(c2ccc(O)cc2)(c2ccc(O)cc2)c2ccccc21 [phenolphthalein] |  | coagulation |  | inhibitory |  | 
CC(=O)[O][Hg][c]1ccccc1 [phenylmercuric acetate] | inhibitors |  |  |  | inhibition | 
O=C(CCc1ccc(O)cc1)c1c(O)cc(O)cc1O [phloretin] | promoted | coagulation | inhibited | inhibitory |  | 
Cc1cc2nc3c(=O)[nH]c(=O)nc-3n(C[C@H](O)[C@H](O)[C@H](O)CO)c2cc1C [riboflavin] |  |  |  |  | inhibition | number of the nine other wall enzyme activities inhibited [4]: eight; [3H]Xyloglucan formed, Low light (parsley XET activity; 0.5 mM riboflavin, 0.2 lux, 2 h, control without riboflavin 8861 ± 105, mean ± SE of 4): 5390 ± 130 cpm; [3H]Xyloglucan formed, High light (parsley XET activity; 0.5 mM riboflavin, 1100 lux, 2 h, control without riboflavin 8942 ± 349, mean ± SE of 4): 807 ± 63 cpm; IC50 (parsley XET activity; 2 h): 29 µM and ~30 µM; membrane function ([2]; at the concentrations tested): impaired
C[CH2][Hg][S]c1ccccc1C(=O)[O-].[Na+] [thiomersal] | did not show inhibitory effects |  |  |  | inhibition | 
erythrosin B |  |  |  | inhibitory | inhibition | IC50 (parsley XET activity; 2 h): 36 µM; IC50 (parsley XET activity; 2 h, listed as erythrosin B): ~30 µM; concentration that inhibited cell expansion (abstract) ([6]; Rosa cell-suspension culture): 1 µM; concentration inhibiting growth (PCV) without membrane impairment ([6]; Rosa, 4 d incubation): 1.1 µM; membrane function ([2]; at the concentrations tested): impaired; concentration that inhibited cell expansion / culture growth (abstract) ([3]; Zea cell-suspension culture): 1 µM
